# Measured values published in patent publication US12257050B2, “Calibration free in-vivo measurement of analytes using electrochemical sensors” (THE REGENTS OF THE UNIVERSITY OF CALIFORNIA, priority 2017, dated 2025).
# Conditions: rat, in vivo, iv, 30 mg/kg
# From the text: The drift-resistance of chronoamperometrically-interrogated E-AB sensors is sufficient to support continuous, real-time measurements directly in situ in the blood of live animals. Aminoglycoside-binding E-AB were fabricated sensors on 75 μm-diameter gold micro-wires, encased in 22-gauge catheters for structural support, and deployed directly in the jugular veins of live rats (FIG. 6A). The plasma pharmacokinetics of the antibiotic tobramycin were monitored following an intravenous administration of 30 mg/kg by performing continuous chronoamperometric measurements for a total of two hours (FIG. 6B). Continuous measurements were achieved by pulsing the potential of the E-AB sensors serially between −0.1 V and −0.3 V, holding each pulse with a duration of only 100 ms. Then, non-linear regression analysis was performed of the current transients generated at −0.3 V to extract current decay lifetimes in real time, and these lifetimes were converted to concentration using the previously determined Langmuir isotherm (FIG. 6C). […]
# The sub-second time resolution of chronoamperometrically interrogated E-AB sensors measurement of drug pharmacokinetics with unprecedented precision. The distribution, α, and elimination, β, lifetimes of tobramycin were determined by fitting the in vivo data to a two-compartment pharmacokinetic model. […]
smiles,measurement,value
NC[C@H]1O[C@H](O[C@H]2[C@H](O)[C@@H](O[C@H]3O[C@H](CO)[C@@H](O)[C@H](N)[C@H]3O)[C@H](N)C[C@@H]2N)[C@H](N)C[C@@H]1O [tobramycin],distribution lifetime α (first-order time constant of drug distribution),3.74 ± 0.04 min
same,elimination lifetime β (elimination time constant),69 ± 2 min
